Where “and” joins values, the source holds several entries; their conditions need not be identical. Equal entries are not always repeated.
Molecular target: lysine gingipain (Kgp) (Porphyromonas gingivalis (strain ATCC 33277 / DSM 20709 / CIP 103683 / JCM 12257 / NCTC 11834 / 2561), UniProt B2RLK2)
Test: Inhibition of lysine gingipain, fluorogenic assay (Z-His-Glu-Lys-MCA)
Format: biochemical
Conditions: not given
Description: The specific assay conditions were as follows. Buffer: pH=7.5, 100 mM Tris-HCl, 75 mM NaCl, 2.5 mM CaCl2, 10 mM cysteine, 1% DMSO after all additions. Protein: 0.1 nM Kgp, isolated from culture of Porphyromonas gingivalis, as described by Pike et al. (J. Biol. Chem. 1994, 269(1), 406), and Potempa and Nguyen (Current Protocols in Protein Science. 2007, 21.20.1-21.20.27). Fluorogenic substrate: 10 μM Z-His-Glu-Lys-MCA. Time=90 minutes. Temperature=37° C.
Further assays to measure the inhibitory activity of compounds of the present invention against Kgp and cathepsins B, H, K, L, and S were conducted as described in Example 66. The capacities of the compounds to inhibit the activity of cathepsins F, V, and Z were also measured.
In the case of `NCCCC[C@H](NC(=O)C1CCCC1)C(=O)COc1c(F)c(F)cc(F)c1F` (stereo in doubt) [Compound 73, N-[7-amino-2-oxo-1-(2,3,5,6-tetrafluorophenoxy)heptan-3-yl]cyclopentanecarboxamide, reference compound], the “Kgp IC50 values (in words)” value is reported as “sub-nanomolar”.

Same assay, conditions: Table 3; read-out: IC50 (nM) Kgp
For `NCCCCC(NC(=O)C1CCCC1)C(=O)COc1cc(F)cc(F)c1` (stereo not drawn) [Compound 8a], the IC50 was 0.34 nM.
With `CN(C)CC(=O)C(CCCCN)NC(=O)C1CCCC1` (stereo not drawn) [Compound 19a] the IC50 was > 100 nM.
Work on `NCCCCC(NC(=O)C1CCCC1)C(=O)COc1cc(F)ccc1F` (stereo not drawn) [Compound 6a] yielded an IC50 of 0.19 nM.
With `CS(=O)(=O)CC(=O)C(CCCCN)NC(=O)C1CCCC1` (stereo not drawn) [Compound 20a] the IC50 was > 100 nM.
With `NCCCC[C@H](NC(=O)C1CCCC1)C(=O)COc1c(F)c(F)cc(F)c1F` (stereo in doubt) [Compound 73, N-[7-amino-2-oxo-1-(2,3,5,6-tetrafluorophenoxy)heptan-3-yl]cyclopentanecarboxamide, reference compound] the IC50 was ≤ 0.05 nM.
For `NCCCCC(NC(=O)C1CCCC1)C(=O)COc1cccc(F)c1F` (stereo not drawn) [Compound 5a], the IC50 was 0.15 nM.
With `NCCCCC(NC(=O)C1CCCC1)C(=O)COc1c(F)cccc1F` (stereo not drawn) [Compound 2a] the IC50 was ≤ 0.05 nM and 0.11 nM.
In the case of `NCCCCC(NC(=O)C1CCCC1)C(=O)COCC(F)(F)F` (stereo not drawn) [Compound 17a], the IC50 is reported as > 100 nM.
In the case of `NCCCCC(NC(=O)C1CCCC1)C(=O)COC(C(F)(F)F)C(F)(F)F` (stereo not drawn) [Compound 18a], the IC50 is reported as 0.5 nM.
For `NCCCCC(NC(=O)C1CCCC1)C(=O)COc1ccccc1F` (stereo not drawn) [Compound 3a], the IC50 was 0.64 nM.
In the case of `NCCCC[C@@H](NC(=O)C1CCCC1)C(=O)COc1c(F)c(F)cc(F)c1F` [Compound 74, reference compound], the IC50 is reported as ≤ 0.05 nM.
In the case of `NCCCCC(NC(=O)C1CCCC1)C(=O)COc1cccc(F)c1` (stereo not drawn) [Compound 7a], the IC50 is reported as 1.3 nM.
With `CSCC(=O)C(CCCCN)NC(=O)C1CCCC1` (stereo not drawn) [Compound 16a] the IC50 was > 100 nM.
Work on `NCCCCC(NC(=O)C1CCCC1)C(=O)COc1cc(F)cc(F)c1F` (stereo not drawn) [Compound 4a] yielded an IC50 of 0.07 nM.
Molecule `[N-]=[N+]=Nc1cccc(C(=O)NC(CCCCN)C(=O)COc2c(F)cccc2F)c1` (stereo not drawn) [Compound 12a] has an IC50 of 0.08 nM.

Same assay, conditions: Table 4; read-out: IC50 (nM) Kgp
Molecule `NCCCCC(NC(=O)c1cccnc1F)C(=O)COc1c(F)cccc1F` (stereo not drawn) [Compound 32a] has an IC50 of 0.08 nM.
With `NCCCCC(NC(=O)c1cccnc1)C(=O)COc1c(F)cccc1F` (stereo not drawn) [Compound 43a] the IC50 was 0.09 nM.
With `NCCCCC(NC(=O)c1cccc(F)n1)C(=O)COc1c(F)cccc1F` (stereo not drawn) [Compound 28a] the IC50 was 0.34 nM.
Work on `COC(C)(C)C(=O)NC(CCCCN)C(=O)COC(C(F)(F)F)C(F)(F)F` (stereo not drawn) [Compound 69a] yielded an IC50 of 0.21 nM.
Molecule `NCCCCC(NC(=O)C1CCCC1)C(=O)COc1ccon1` (stereo not drawn) [Compound 49a] has an IC50 of 0.23 nM.
In the case of `NCCCC[C@H](NC(=O)C1CCCC1)C(=O)COc1c(F)c(F)cc(F)c1F` (stereo in doubt) [Compound 73, N-[7-amino-2-oxo-1-(2,3,5,6-tetrafluorophenoxy)heptan-3-yl]cyclopentanecarboxamide, reference compound], the IC50 is reported as < 0.05 nM.
Molecule `NCCCCC(NC(=O)C1CCCC1)C(=O)Cn1ccc(=O)nc1` (stereo not drawn) [Compound 40a] has an IC50 of 30.3 nM.
For `COC(C)(C)C(=O)NC(CCCCN)C(=O)COc1c(F)cccc1F` (stereo not drawn) [Compound 48a], the IC50 was 0.07 nM.
With `NCCCCC(NC(=O)C1CCCC1)C(=O)COc1c(F)cccc1F` (stereo not drawn) [Compound 2a] the IC50 was < 0.05 nM.
In the case of `NCCCCC(NC(=O)c1cccc(OCCF)c1)C(=O)COc1c(F)cccc1F` (stereo not drawn) [Compound 27a], the IC50 is reported as 0.27 nM.
With `CN(C)c1ccc(/N=N/c2ccc(C(=O)NCc3cc(F)c(OCC(=O)C(CCCCN)NC(=O)c4cccc(N=[N+]=[N-])c4)c(F)c3)cc2)cc1` (stereo not drawn) [Compound 44a] the IC50 was 3.04 nM.
For `NCCCCC(NC(=O)c1ccccc1)C(=O)C(F)F` (stereo not drawn) [Compound 37a], the IC50 was > 100 nM.
For `NCCCCC(NC(=O)c1cccc(OCCCF)c1)C(=O)COc1c(F)cccc1F` (stereo not drawn) [Compound 30a], the IC50 was 0.21 nM.
With `NCCCCC(NC(=O)C1CCCC1)C(=O)COC(C(F)(F)F)C(F)(F)F` (stereo not drawn) [Compound 18a] the IC50 was 0.5 nM.
For `NCCCCC(NC(=O)c1cccnc1Br)C(=O)COc1c(F)cccc1F` (stereo not drawn) [Compound 34a], the IC50 was 0.13 nM.
For `[N-]=[N+]=Nc1cccc(C(=O)NC(CCCCN)C(=O)COc2c(F)cccc2F)c1` (stereo not drawn) [Compound 33a], the IC50 was 0.08 nM.
For `NCCCCC(NC(=O)c1cccnc1F)C(=O)COc1ccon1` (stereo not drawn) [Compound 56a], the IC50 was 0.1 nM.
`COC(C)(C)C(=O)NC(CCCCN)C(=O)COc1cc(C)nc(C)c1` (stereo not drawn) [Compound 63a] gave an IC50 of 0.09 nM.
`COC(C)(C)C(=O)NC(CCCCN)C(=O)COc1ccon1` (stereo not drawn) [Compound 57a] showed an IC50 of 0.09 nM.
`NCCCCC(NC(=O)c1ccc(F)nc1)C(=O)COc1c(F)cccc1F` (stereo not drawn) [Compound 29a] showed an IC50 of 0.31 nM.
For `NCCCCC(NC(=O)C1CCCC1)C(=O)COc1cccc(F)c1` (stereo not drawn) [Compound 7a], the IC50 was 1.3 nM.
With `COC(C)(C)C(=O)NC(CCCCN)C(=O)COc1cccnc1` (stereo not drawn) [Compound 64a] the IC50 was 0.4 nM.
In the case of `COC(C)(C)C(=O)NC(CCCCN)C(=O)COc1c(F)ccc(F)c1F` (stereo not drawn) [Compound 47a], the IC50 is reported as 0.06 nM.
`NCCCCC(NC(=O)c1cccnc1)C(=O)COc1c(F)ccc(F)c1F` (stereo not drawn) [Compound 42a] showed an IC50 of 0.06 nM.
Work on `NCCCCC(NC(=O)c1ccc(F)cc1)C(=O)COc1c(F)cccc1F` (stereo not drawn) [Compound 35a] yielded an IC50 of 0.1 nM.
Work on `NCCCCC(NC(=O)c1ccc(F)nc1)C(=O)COc1ccon1` (stereo not drawn) [Compound 55a] yielded an IC50 of 0.12 nM.
In the case of `NCCCCC(NC(=O)C1CCCC1)C(=O)Cn1cnccc1=O` (stereo not drawn) [Compound 39a], the IC50 is reported as > 100 nM.
`NCCCCC(NC(=O)c1ccccn1)C(=O)COc1c(F)ccc(F)c1F` (stereo not drawn) [Compound 50a] showed an IC50 of 0.09 nM.
For `COC(C)(C)C(=O)NC(CCCCN)C(=O)COc1cnc(C)nc1` (stereo not drawn) [Compound 65a], the IC50 was 0.16 nM.
Molecule `NCCCCC(NC(=O)c1cccc(F)c1)C(=O)COc1c(F)cccc1F` (stereo not drawn) [Compound 26a] has an IC50 of 0.09 nM.
In the case of `NCCCCC(NC(=O)C1CCCC1)C(=O)Cn1cncc(F)c1=O` (stereo not drawn) [Compound 41a], the IC50 is reported as > 100 nM.
`C[N+](C)(C)c1ccc(C(=O)NC(CCCCN)C(=O)COc2ccon2)cn1` (stereo not drawn) [Compound 61a] showed an IC50 of 0.43 nM.
`CN(C)c1ccc(C(=O)NC(CCCCN)C(=O)COc2ccon2)cn1` (stereo not drawn) [Compound 62a] gave an IC50 of 0.14 nM.
Work on `NCCCCC(NC(=O)c1ccncc1)C(=O)COc1c(F)ccc(F)c1F` (stereo not drawn) [Compound 52a] yielded an IC50 of 0.06 nM.
Molecule `CS(C)(=O)=CC(=O)C(CCCCN)NC(=O)C1CCCC1` (stereo not drawn) [Compound 58a] has an IC50 of 4.66 nM.
Work on `NCCCCC(NC(=O)c1ccnc(F)c1)C(=O)COc1c(F)cccc1F` (stereo not drawn) [Compound 31a] yielded an IC50 of 0.15 nM.

Same assay, conditions: Table 5, probe compounds; read-out: Kgp IC50
In the case of `NCCCC[C@H](NC(=O)C1CCCC1)C(=O)COc1c(F)c(F)cc(F)c1F` (stereo in doubt) [Compound 73, N-[7-amino-2-oxo-1-(2,3,5,6-tetrafluorophenoxy)heptan-3-yl]cyclopentanecarboxamide, reference compound], the IC50 is reported as < 0.05 nM.
Work on `CN(C)c1ccc(/N=N/c2ccc(C(=O)NCc3cc(F)c(OCC(=O)C(CCCCN)NC(=O)c4cccc(N=[N+]=[N-])c4)c(F)c3)cc2)cc1` (stereo not drawn) [Compound 44a] yielded an IC50 of 3 nM.

Same assay, conditions: as compared to reference compound 73
In the case of `NCCCC[C@H](NC(=O)c1ccc(F)nc1)C(=O)COc1ccon1` [Compound 55, (S)—N-(7-amino-1-(isoxazol-3-yloxy)-2-oxoheptan-3-yl)-6-fluoronicotinamide], the “selectivity for Kgp over endogenous cathepsins” value (shortened to “selectivity for Kgp”) is reported as “far more selective”.
In the case of `NCCCC[C@H](NC(=O)c1ccccn1)C(=O)COc1c(F)ccc(F)c1F` [Compound 50, (S)—N-(7-amino-2-oxo-1-(2,3,6-trifluorophenoxy)heptan-3-yl)picolinamide], the “selectivity for Kgp” value is reported as “increased selectivity”.
With `NCCCC[C@H](NC(=O)C1CCCC1)C(=O)COC(C(F)(F)F)C(F)(F)F` [Compound 18, (S)—N-(7-amino-1-((1,1,1,3,3,3-hexafluoropropan-2-yl)oxy)-2-oxoheptan-3-yl)cyclopentanecarboxamide] the “selectivity for Kgp” value was “far more selective”.
With `NCCCC[C@H](NC(=O)C1CCCC1)C(=O)COc1cccc(F)c1` [Compound 7, (S)—N-(7-amino-1-(3-fluorophenoxy)-2-oxoheptan-3-yl)cyclopentanecarboxamide] the “selectivity for Kgp” value was “increased selectivity”.
For `NCCCC[C@H](NC(=O)C1CCCC1)C(=O)COc1c(F)cccc1F` [Compound 2, (S)—N-(7-amino-1-(2,6-difluorophenoxy)-2-oxoheptan-3-yl)cyclopentanecarboxamide], the “selectivity for Kgp” value was “increased selectivity”.

Test system: not listed separately
Test: Oral pharmacokinetics in CD-1 mice
Format: in vivo
Conditions: male CD-1 mice, p.o. 10 mg/kg
With `NCCCC[C@H](NC(=O)C1CCCC1)C(=O)COc1ccon1` [Compound 49, (S)—N-(7-amino-1-(isoxazol-3-yloxy)-2-oxoheptan-3-yl)cyclopentanecarboxamide] the “concentrations in the brain and cerebrospinal fluid (CSF)” value was “reduced”.

From patent US11325884B2, “Ketone inhibitors of lysine gingipain” (CORTEXYME, INC., priority 2016, dated 2022)
